In brackets after ≈: the same amount, converted by molar mass. Marks after values point to notes of the source that are not given here.
Legend:
[1] = physchem; conditions: aqueous buffer
[2] = test system: mice with bacterial shock induced by LPS; assay: LPS bacterial shock mice, survival, oral administration (Experiment 10); format: in vivo, BALB/c mice; conditions: LPS 18 mg/kg i.p.
[3] = D-MEM medium, absence of human serum, 100 μM, 37° C., 24 hours
[4] = test system: IL-12 in serum of mice administered with LPS; assay: Serum IL-12 in LPS-administered mice, ANO i.v. (Experiment 7); format: in vivo, BALB/c mice; conditions: LPS 18 mg/kg i.p., serum two hours after LPS
Protocol: (§1) More specifically, 18 BALB/c female mice, 9-week-old, commercialized by Japan Charles River, Tokyo, Japan, were randomly divided into three groups, six heads each. An LPS specimen derived from E. coli (055:B5), commercialized by Sigma-Aldrich Corporation, St. Louis, Mo. USA, was dissolved in physiological saline and intraperitoneally administered to all the 6 mice in respective three groups at a dose of 18 mg/kg body weight of LPS (Experiment groups 1 to 3). […] To the six mice of the remaining one group was intravenously administered PBS in a liquid volume of 0.2 mL/head simultaneously with the administration of LPS (Experiment group 1).
(§2) For the mice in each group, they were collected blood at two hours after the LPS administration, followed by assaying the level of TNF-α, IL-6, IL-10, and IL-12 in each serum and averaging the data for each group. For the assay of the level of TNF-α, the same ELISA as in Experiment 2 was used and for the assay of the level of IL-6, the same ELISA as in Experiment 3 was used. […]

[5] = test system: TNF-α in serum of mice administered with LPS; assay: Serum TNF-α in LPS-administered mice, oral administration (Experiment 11); format: in vivo, BALB/c mice; conditions: LPS 18 mg/kg i.p., serum 90 min after LPS
Protocol: The seven mice in another one group were orally administered through a gastric tube with 3′-glucosyl-adenosine N1-oxide, which had been dissolved in PBS, at a dose of 200 mg/kg body weight in a liquid volume of 0.2 mL/head (Experiment group 4). The seven mice in the remaining one group were orally administered through a gastric tube with PBS in a liquid volume of 0.2 mL/head (Experiment group 1). All the mice were intraperitoneally administered with an LPS specimen derived from E. coli (055:B5), commercialized by Sigma-Aldrich Corporation, St. Louis, Mo. USA, which had been dissolved in PBS, at a dose of 18 mg/kg body weight (Experiment groups 1 to 4). For each group, the mice were collected blood from their tail veins at 90 min after administering LPS, followed by assaying the concentrations of TNF-α, IL-6, and IL-10 contained in serum by the same method as in […].

[6] = test system: BALB/c mice; assay: Safeness of injection preparations, i.v. once a day for seven days (Example 2); format: in vivo; conditions: mouse, in vivo, iv
Protocol: The safeness of the preparations prepared in the above was evaluated.

[7] = test system: mice with bacterial shock induced by LPS; assay: LPS bacterial shock mice, survival, ANO i.v. one hour after LPS (Experiment 8); format: in vivo, BALB/c mice; conditions: LPS 18 mg/kg i.p., ANO 135 mg/kg i.v. at one hour after LPS
Protocol: An LPS specimen derived from E. coli ([…]), commercialized by Sigma-Aldrich Corporation, St. Louis, Mo. USA, was dissolved in PBS and intraperitoneally administered to all the seven mice in each group at a dose of 18 mg/kg body weight of LPS. […] For each group, the survival number of mice was confirmed up to 7 to 27 hours after administering LPS and determined the survival rate (%) of mice in each group.

[8] = test system: IL-10 in serum of mice administered with LPS; assay: Serum IL-10 in LPS-administered mice, ANO i.v. (Experiment 7); format: in vivo, BALB/c mice; conditions: LPS 18 mg/kg i.p., serum two hours after LPS
Protocol: as §1, §2

[9] = test system: lipopolysaccharide (LPS)-induced endotoxin shock mice; assay: LPS-induced endotoxin shock mice, survival, ANO i.v. simultaneously with LPS (Experiment 1); format: in vivo, BALB/c mice; conditions: LPS 15 mg/kg i.p.; for Survival rate (%) of mice, 7 Hours: 7 hours after LPS; for Survival rate (%) of mice, 19 Hours: 19 hours after LPS; for Survival rate (%) of mice, 26 Hours: 26 hours after LPS; for Survival rate (%) of mice, 43 Hours: 43 hours after LPS
Protocol: USA, which had been dissolved in phosphate buffered saline (PBS) (Experiment groups 1 to 3). […] To the remaining five heads of another one group were intravenously administered with 0.2 mL/head of PBS simultaneously with the LPS administration (Experiment group 1). For each group, the survival number of mice was macroscopically observed up to 7 to 43 hours after the LPS administration, and based on this, the survival rate was determined for each group. The survival rate (%) of mice for each group was calculated by dividing the survival number of mice at each observation time with the survival number of mice at the initiation of this experiment, and multiplying the obtained value by 100.

[10] = mouse, in vivo
Protocol: The eight mice in each five groups were sensitized (may be simply called “sensitization”, hereinafter) with picryl chloride (Tokyo Chemical Industry Co., Ltd., Tokyo, Japan) in such a manner of dropping a solution, which had been dissolved in a mixture solution of ethanol and acetone in a volume ratio of 4:1 at a concentration of 5%, on the shaved abdominal skin of the mice and on four footpads in a total volume of 150 μL/mouse, and spreading the solution over the abdominal skin and the foot pads by using a micropipette similarly as above.
Throughout the test period, the mice were weighed once a week. The judgement of the conditions of skin inflammation was conducted twice a week every Tuesday and Friday from the 3rd induction for the degrees of four items of red flare/bleeding, edema (swelling of earflap), chafing/loss of tissue, and the formation of scar tissue/drying, and scored based on the criterion of four grades shown in Table 17; “0” (symptomless), “1” (mild), “2” (moderate), and “3” (severe). The total scores of each evaluation items for each group were averaged for use as a skin score.

## Nc1c2ncn([C@@H]3O[C@H](CO)[C@@H](O)[C@H]3O)c2nc[n+]1[O-] [ANO, adenosine N1-oxide]
[1]
  solubility: ~20 mg/mL (≈ 70.6 mM)
[2]; oral 400 mg/kg (200 × 2 shots)
  Survival rate (%) of mice, 22 Hours: 75%
  Survival rate (%) of mice, 31 Hours: 75%
  Survival rate (%) of mice, 46 Hours: 50%
  Survival rate (%) of mice, 55 Hours: 50%
  Survival rate (%) of mice, 72 Hours: 100%
  Survival rate (%) of mice, 79 Hours: 50%
[2]; oral 600 mg/kg (200 × 3 shots)
  Survival rate (%) of mice, 22 Hours: 87.5%
  Survival rate (%) of mice, 31 Hours: 87.5%
  Survival rate (%) of mice, 46 Hours: 87.5%
  Survival rate (%) of mice, 55 Hours: 87.5%
  Survival rate (%) of mice, 72 Hours: 100%
  Survival rate (%) of mice, 79 Hours: 75%
[3]
  residual percentage: 100%
[4]; ANO 68 mg/kg i.v.
  IL-12 Concentration: 136** pg/mL
[4]; ANO 135 mg/kg i.v.
  IL-12 Concentration: 105** pg/mL
[5]; oral 100 mg/kg
  Amount of TNF-α: 1339 pg/mL
[5]; oral 200 mg/kg
  Amount of TNF-α: 874* pg/mL
[6]
  change in body weight and other appearance versus PBS: no significant change
  clinical laboratory test results that provide indices of renal and liver functions versus PBS: no difference
[7]; 7 hours
  Survival rate (%) of mice, 7 Hours: 100%
[7]; 22 hours
  Survival rate (%) of mice, 22 Hours: 86%
[7]; 27 hours
  Survival rate (%) of mice, 27 Hours: 57%
[8]; ANO 68 mg/kg i.v.
  IL-10 Concentration: 14.1 ng/mL
[8]; ANO 135 mg/kg i.v.
  IL-10 Concentration: 19.3 ng/mL
[9]; ANO 15 mg/kg body weight i.v.
  Survival rate (%) of mice, 7 Hours: 100%
  Survival rate (%) of mice, 19 Hours: 100%
  Survival rate (%) of mice, 26 Hours: 80%
  Survival rate (%) of mice, 43 Hours: 80%
[9]; ANO 45 mg/kg body weight i.v.
  Survival rate (%) of mice, 7 Hours: 100%
  Survival rate (%) of mice, 19 Hours: 100%
  Survival rate (%) of mice, 26 Hours: 100%
  Survival rate (%) of mice, 43 Hours: 80%

## Nc1ncnc2c1ncn2[C@@H]1O[C@H](CO)[C@@H](O)[C@H]1O [AN, adenosine]
[10]
  body weight of mice applied with the gel: reduction of increasing rate of their body weights

Reference: US9757408B2 (Hayashibara Co., Ltd., priority 2010, dated 2017)
